Assay results published in patent US9371337B2, “β-lactamase inhibitors” (The Regents of the University of California, priority 2011, dated 2016).
Where two headings read alike, the source gives them in different places.

Key:
[1] = target: T1, α-chymotrypsin (bovine pancreatic) (Bos taurus, UniProt P00766); experiment: α-Chymotrypsin inhibition; format: biochemical
T1 construct: purchased Sigma-Aldrich
Protocol: α-Chymotrypsin assays were performed in 50 mM Tris buffer pH 7.5 with 0.01% Triton-X. Inhibitor and 0.001 mg/mL enzyme were incubated at their final concentration for 10 min before the reaction was initiated by the addition of 200 μM N-succinyl-Ala-Ala-Pro-Phe p-nitroanilide and monitored at 410 nm.
(§1) To assess the selectivity of the new molecules we determined Ki values against three common serine proteases, Trypsin, Elastase and α-Chymotrypsin, as well as that of a class A β-lactamase, CTX-M-9 (Table 10) (Pouvreau L, et al. (1998), FEBS Lett 423:167-172; Del Mar E G, et al. (1980), Biochemistry 19:468-472; Rodriguez-Martinez J A, et al. (2009), Biotechnol Lett 31:883-887; Chen Y, et al. (2005), J Mol Biol 348:349-362).

AmpC β-lactamase [2] = target: T2, AmpC β-lactamase (Escherichia coli, UniProt P00811); format: biochemical
T2 construct: made in house

Trypsin [3] = target: T3, Trypsin (UniProt P00760); experiment: Trypsin inhibition; format: biochemical; details: Table 10, Trypsin
T3 construct: IC50 (Estimated from single concentration measurement); Ki
T3 sequence (P00760 1-246): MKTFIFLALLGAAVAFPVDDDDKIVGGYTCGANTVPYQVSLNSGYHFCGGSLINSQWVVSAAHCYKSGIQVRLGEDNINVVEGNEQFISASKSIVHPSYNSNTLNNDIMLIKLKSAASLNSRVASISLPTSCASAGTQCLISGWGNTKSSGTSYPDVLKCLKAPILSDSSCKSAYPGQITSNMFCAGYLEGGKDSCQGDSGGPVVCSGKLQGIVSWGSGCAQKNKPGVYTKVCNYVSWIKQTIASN
Description: as §1

[4] = test system: clinical strains resistant to third-generation cephalosporins; experiment: MIC distribution of third-generation cephalosporins alone or with compounds over clinical strains; format: cell-based
Protocol: The anti-resistance activity of inhibitors was investigated by the determination of the minimum inhibitory concentrations (MICs) of the β-lactam/inhibitor combination necessary to inhibit the growth of clinically-isolated bacteria resistant to third-generation cephalosporins via expression of class A or class C β-lactamases (Table 6).
Susceptibility testing was performed and interpreted following the guidelines of CLSI. (Clinical and Laboratory Standards Institute, Performance standards for antimicrobial susceptibility testing, 20th Informational Supplement, M100-S20 2010) The compounds were dissolved in 50% DMSO, and dilutions were performed using Muller-Hinton medium. An adequate final concentration was obtained to determine the minimum inhibitory concentrations (MICs). The concentration of DMSO was maintained below 5%. The inhibitors were tested for synergy with the third-generation β-lactams ceftazidime and cefotaxime against several clinical bacteria. The ratio of β-lactams to inhibitors was 1:4. Each value reported reflects the average of three independent experiments. […] The Friedman's test and the Wilcoxon signed rank test were used to compare MIC values. Statistical significance was established at p<0.05.

Trypsin [5] = experiment: Trypsin inhibition; format: biochemical; details: Table 4h, Trypsin vs AmpC
Trypsin [6] = target: T3, Trypsin; experiment: Trypsin inhibition; format: biochemical
CTX-M-9 β-lactamase = CTX-M-9 β-lactamase (Escherichia coli, UniProt Q9L5C8); experiment: biochemical; format: biochemical
Protocol: Reactions were initiated by the addition of 0.3 nM enzyme and monitored at 405 nm.
as §1

AmpC β-lactamase [7] = target: T2, AmpC β-lactamase; experiment: biochemical; format: biochemical
Protocol: FIG. 18. Representative IC50 curves. […] IC50 curves were obtained by measuring rates (in duplicates) at different inhibitor concentrations (x-axis) and by determining the residual activity (y-axis, in percentage). IC50 values were determined by non-linear regression and Ki values calculated using GraphPad software assuming competitive inhibition.
Sulfonamidomethaneboronic acids were dissolved in 100% DMSO at a concentration of 100 mM; more diluted stocks were prepared as necessary. […] The enzyme was expressed and purified as described (Usher, K. C. et al., Biochemistry 1998, 37, 16082-16092) and CENTA was purchased from Tydock Pharma.
Kinetic measurements were run at room temperature in 50 mM sodium-cacodylate pH 6.5 in the presence of 0.01% Triton-X to prevent non-specific inhibition via compound aggregation. […] (Kettner, C. A. and Shenvi, A. B., J. Biol. Chem. 1984, 259, 15106-15114) Reactions were performed in 1 mL cuvettes with 60 μM CENTA and initiated by adding 1.2 nM enzyme. […] (Weston, G. S. et al., J. Med. Chem. 1998, 41, 4577-4586) The first 180 sec of each reaction were used to measure initial rates. IC50 values were obtained by fitting binding data to a sigmoidal dose-response equation using GraphPad Prism (GraphPad software, Inc). Ki values were determined by the use of Cheng-Prusoff equation. (Cheng, Y. and Prusoff, W. H., Biochem. Pharmacol. 1973, 22, 3099-3108)

Elastase = Elastase inhibition; format: biochemical; details: Table 4h, Elastase vs AmpC
Description: as §1

[8] = third-generation cephalosporins in combination with the compound

T2 sequence (P00811 20-377): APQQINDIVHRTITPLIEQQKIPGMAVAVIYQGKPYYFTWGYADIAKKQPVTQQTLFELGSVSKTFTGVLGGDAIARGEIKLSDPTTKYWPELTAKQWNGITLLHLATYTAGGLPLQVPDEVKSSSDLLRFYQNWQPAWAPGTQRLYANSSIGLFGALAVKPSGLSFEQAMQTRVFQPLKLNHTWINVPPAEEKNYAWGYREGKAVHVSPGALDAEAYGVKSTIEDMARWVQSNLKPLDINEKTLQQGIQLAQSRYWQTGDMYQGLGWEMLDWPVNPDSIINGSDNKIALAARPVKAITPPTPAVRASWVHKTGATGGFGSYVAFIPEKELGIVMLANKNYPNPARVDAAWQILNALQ
Sequence of CTX-M-9 β-lactamase (Q9L5C8 29-291): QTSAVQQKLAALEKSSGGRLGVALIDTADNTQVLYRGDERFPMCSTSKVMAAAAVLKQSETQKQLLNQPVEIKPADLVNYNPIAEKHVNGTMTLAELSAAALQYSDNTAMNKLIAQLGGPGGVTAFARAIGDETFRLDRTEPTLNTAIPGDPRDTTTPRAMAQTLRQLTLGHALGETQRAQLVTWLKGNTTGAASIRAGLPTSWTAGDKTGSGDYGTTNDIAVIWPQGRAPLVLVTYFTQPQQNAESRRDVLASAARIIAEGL

O=S(=O)(NCB(O)O)c1ccc(-c2nn[nH]n2)nc1 [CR161, [6-(3-tetrazol-5-yl)pyridin-3-sulfonylamino]methaneboronic acid hydrocloride]
activity at 100 µM ([1]; Table 4b, 100 μM inhibitor, read-out: Percentage activity with 100 μM inhibitor): 90% | potency estimated from few doses ([1]; Table 4e, read-out: IC50 (Estimated from single concentration measurement)): 900 µM | Ki ([1]; Table 10, α-Chymotrypsin): 224 µM | Selectivity vs AmpC (comparison of IC50 values) ([1]; Table 4h, Chymotrypsin vs AmpC): 136364 | inhibition at 100 µM ([1]; read-out: Percentage inhibition with 100 μM inhibitor): 10% | type of inhibition (AmpC β-lactamase [2]; Lineweaver-Burk analysis, competition with substrate CENTA): competitive | time dependence of inhibition (incubation effect, off-rate) (AmpC β-lactamase [2]; enzyme incubation and dilution experiments): incubation effect owing to slow off-rates | Ki (Trypsin [3]): 350 µM | clinical isolates for which MICs dropped into the susceptible range (MICs≦1 μg/mL) ([4]; cephalosporins combined with the compound): 75% | MIC 25% percentile [4, 8]: 0.5 µg/mL | MIC 75% percentile [4, 8]: 1.5 µg/mL | Selectivity vs AmpC (comparison of IC50 values) (Trypsin [5]): 287879 | Percentage activity with 100 μM inhibitor (Trypsin [6]; Table 4b, 100 μM inhibitor): 95 | Percentage inhibition with 100 μM inhibitor (Trypsin [6]; Table 4c, 100 μM inhibitor): 5 | potency estimated from few doses (Trypsin [6]; read-out: IC50 (Estimated from single concentration measurement), Table 4e): 1.9 mM | IC50 (CTX-M-9 β-lactamase): 6.7 µM | Ki (CTX-M-9 β-lactamase; Table 8, read-out: Ki vs CTX-M-9): 3.9 µM | Selectivity vs AmpC (comparison of IC50 values) (CTX-M-9 β-lactamase; Table 4h, CTX-M-9 vs AmpC): 1015 | potency estimated from few doses (CTX-M-9 β-lactamase; read-out: IC50 (Estimated from single concentration measurement)): 8 µM | inhibition at 16 µM (CTX-M-9 β-lactamase; read-out: Percentage inhibition with 16 μM inhibitor): 66% | IC50 (AmpC β-lactamase [7]): 6.6 nM | Ki (AmpC β-lactamase [7]; Ki): 0.8 to 1.3 nM | Ki (AmpC β-lactamase [7]; Ki (from multi- or single concentration measurements), Table 4g): 0.8 nM | Ki (AmpC β-lactamase [7]; Ki Vs AmpC, Table 7): 0.8 nM | Ki (AmpC β-lactamase [7]; Ki vs AmpC, Table 8): 0.8 nM | Ki (AmpC β-lactamase [7]; Ki, Table 5): 0.8 nM | Ki (AmpC β-lactamase [7]; Ki, Table 10, AmpC): 0.8 nM | Ligand efficiency (AmpC β-lactamase [7]; Table 5): 0.64 | Selectivity vs AmpC (comparison of IC50 values) (Elastase): 25799

C[C@H](NS(C)(=O)=O)B(O)O [GBS32, (1R)-1-(Methylsulfonylamino)-1-ethaneboronic acid]
Ki (AmpC β-lactamase [7]; Ki Vs AmpC, Table 7): 650 nM

CC(C)(C)N(CB(O)O)S(=O)(=O)Cc1ccccc1 [CR22]
Ki (AmpC β-lactamase [7]; Ki Vs AmpC, Table 7): 5100 nM

N#Cc1ccc(S(=O)(=O)NCB(O)O)cn1 [CR163, [6-cyanopyridin-3-sulfonylamino]methaneboronic acid hydrocloride]
Ki (AmpC β-lactamase [7]; Ki Vs AmpC, Table 7): 270 nM | Ki (AmpC β-lactamase [7]; Ki vs AmpC, Table 8): 270 nM

CC1(C)OB(c2ccccc2NS(C)(=O)=O)OC1(C)C [CR181, Pinacol 2-(methylsulfonylamino)phenylboronate]
Ki (AmpC β-lactamase [7]; Table 7, read-out: Ki Vs AmpC): 400 nM

O=C(Cc1cccs1)N[C@@H](Cc1cccc(C(=O)O)c1)B(O)O [Compound 17c, reference compound]
Ki (AmpC β-lactamase [7]; Table 1, read-out: Ki): 39 nM

O=S(=O)(Cc1ccccc1)N[C@@H](Cc1ccccc1)B(O)O [Compound 16, (1R)-1-(phenylmethanesulfonylamino)-2-phenylethaneboronic acid]
Ki (AmpC β-lactamase [7]; Table 1, read-out: Ki): 3720 nM | Ki (AmpC β-lactamase [7]; Table 7, read-out: Ki Vs AmpC): 3720 nM

CC1(C)OB(c2ccccc2NS(=O)(=O)Cc2ccccc2)OC1(C)C [CR180, Pinacol 2-(phenylmethanesulfonylamino)phenylboronate]
Ki (AmpC β-lactamase [7]; Table 7, read-out: Ki Vs AmpC): 200 nM

Pinacol(isopropylsulfonylamino)methaneboronate [GBS22]
Ki (AmpC β-lactamase [7]; Table 7, read-out: Ki Vs AmpC): 100 nM

N#Cc1ccc(S(=O)(=O)NCB(O)O)cc1 [CR162, [4-cyanobenzensulfonylamino]methaneboronic acid]
Ki (AmpC β-lactamase [7]; Ki Vs AmpC, Table 7): 310 nM | Ki (AmpC β-lactamase [7]; Ki vs AmpC, Table 8): 310 nM

COC(=O)c1ccc(CS(=O)(=O)NCB(O)O)cc1 [Compound 8]
Ki (AmpC β-lactamase [7]; Table 7, read-out: Ki Vs AmpC): 120 nM
